Five compounds from patent publication US11369688B2, “Hybrid telodendrimers” (THE REGENTS OF THE UNIVERSITY OF CALIFORNIA, priority 2016, dated 2022) can be followed below.

This data set is described as follows: Visual observation of drug-loaded crosslinked PEG5K-(Ahx-(NAc-Cys))4/CA4 nanocarriers. Particulars: 1 mg drug/10 mg PEG5K-(Ahx-(NAc-Cys))4/CA4, crosslinked; effective concentration 2 mg drug/20 mg polymer per ml PBS. In kind it is physicochemical.
`CO[C@H]1C(=O)[C@]2(C)[C@@H](OC)C[C@H]3OC[C@@]3(OC(C)=O)[C@H]2[C@H](OC(=O)c2ccccc2)[C@]2(O)C[C@H](OC(=O)[C@H](O)[C@@H](NC(=O)OC(C)(C)C)c3ccccc3)C(C)=C1C2(C)C` [Cabazitaxel, cabazitaxel]: the Observation entry is reported as “Clear solution”.

For `CC(=O)O[C@@]12CO[C@@H]1C[C@H](O)[C@@]1(C)C(=O)[C@H](O)C3=C(C)[C@@H](OC(=O)[C@H](O)[C@@H](NC(=O)OC(C)(C)C)c4ccccc4)C[C@@](O)([C@@H](OC(=O)c4ccccc4)[C@H]21)C3(C)C` [Docetaxel, docetaxel], the Observation entry is “Clear solution”.

For `COc1cccc2c1C(=O)c1c(O)c3c(c(O)c1C2=O)C[C@@](O)(C(=O)CO)C[C@@H]3O[C@H]1C[C@H](N)[C@H](O)[C@H](C)O1` [Doxorubicin], the Observation result was “Clear solution”.

Turning to `CCc1c2c(nc3ccc(O)cc13)-c1cc3c(c(=O)n1C2)COC(=O)[C@]3(O)CC` [SN-38], the Observation entry is reported as “Huge precipitate”.

`CC[C@]1(O)C[C@@H]2CN(CCc3c([nH]c4ccccc34)[C@@](C(=O)OC)(c3cc4c(cc3OC)N(C)[C@H]3[C@@](O)(C(=O)OC)[C@H](OC(C)=O)[C@]5(CC)C=CCN6CC[C@]43[C@@H]65)C2)C1` [Vinblastine]: the Observation entry is on record as “Clear”.
